pEC50: −log10 of the molar value.
What was measured:
[1] = target: Dual specificity tyrosine-phosphorylation-regulated kinase 1A (Homo sapiens, UniProt Q13627); test: Inhibition of recombinant DYRK1A (unknown origin) using Ser/Thr 18 peptide as substrate incubated for 1 hr in presence of ATP by FRET assay
[2] = Induction of chondrogenesis in human MSC assessed as maximum activity at 300 nM incubated for 6 days by rhodamine B and Nile red staining based imaging analysis relative to control; format: functional; conditions: BMMSC, 144 h, time 6 day
[3] = Effect on Wnt signaling pathway in human SW480 cells harbouring TCF/LEF luciferase reporter gene and SP5-Luc reporter gene incubated for 36 to 48 hrs by luminescence assay; format: cell-based
[4] = Induction of chondrogenesis in human MSC assessed as incubated for 6 days by rhodamine B and Nile red staining based imaging analysis; format: functional; conditions: bmmsc
[5] = Inhibition of IL1-beta induced MMP3 expression levels in human chondrocytes assessed as MMP3 levels incubated for 2hrs followed by IL1-beta stimulation and measured after overnight incubation by LANCE assay; format: functional, cell-based; conditions: Chondrocyte
[6] = Induction of chondrogenesis in human MSC assessed as maximum activity at 100 nM incubated for 6 days by rhodamine B and Nile red staining based imaging analysis relative to control; format: functional; conditions: BMMSC, 144 h, time 6 day

Structure (SMILES)	pEC50 [1]	Emax at 0.3 µM [2] [%]	pEC50 [3]	pEC50 [4]	pEC50 [5]	Emax at 0.1 µM [6] [%]
c1cncc(-c2cncc3[nH]c(-c4n[nH]c5ncc(-c6cncnc6)cc45)cc23)c1	8.15	24.1	< 5.00	–	–	–
O=C(Nc1cncc(-c2cnc3[nH]nc(-c4nc5c(-c6cccnc6)cncc5[nH]4)c3c2)c1)C1CC1	7.85	86.3	7.63	–	–	–
COc1ccc(NC(=O)c2n[nH]c3ccc(-c4cncc(CN5CCCCC5)c4)cc23)cn1	9.00	138	7.82	6.52	–	–
FC1(F)CCN(Cc2cncc(-c3ccc4[nH]nc(-c5cc6c(-c7cccnc7)ccnc6[nH]5)c4c3)c2)C1	8.00	20.3	6.28	–	–	–
Cc1ccncc1-c1ccc2[nH]nc(-c3nc4c(-c5ccsc5)nccc4[nH]3)c2c1	7.28	156	7.72	8.00	–	–
CC(C)(C)C(=O)Nc1cncc(-c2ccc3[nH]nc(-c4nc5c(-c6ccc(F)s6)ccnc5[nH]4)c3c2)c1	7.01	120	7.78	7.52	–	–
Nc1cncc(-c2ccc3[nH]nc(-c4cc5c(-c6cccnc6)nccc5[nH]4)c3c2)c1	8.70	178	6.83	7.00	–	–
O=C(Nc1cncc(-c2cnc3[nH]nc(-c4cc5c(N6CCCCC6)nccc5[nH]4)c3c2)c1)C1CC1	7.51	42.5	5.41	–	–	–
c1cncc(-c2ccnc3[nH]c(-c4n[nH]c5cnc(-c6cncnc6)cc45)cc23)c1	7.00	49.6	< 5.00	–	–	–
c1cncc(-c2ccc3[nH]nc(-c4cc5c(-c6cccnc6)cncc5[nH]4)c3c2)c1	9.00	–	6.51	7.00	8.96	58.2
O=C(Nc1cncc(-c2cc3c(-c4cc5c(N6CCCCC6)nccc5[nH]4)n[nH]c3cn2)c1)C1CCC1	7.64	42.4	5.39	–	–	–
CCC(=O)Nc1cncc(-c2cnc3[nH]nc(-c4nc5c(-c6ccc(F)cc6)cncc5[nH]4)c3c2)c1	7.96	143	7.96	6.52	–	–
CN1CCN(c2cncc3[nH]c(-c4n[nH]c5ccc(-c6cncc(NC(=O)CC(C)(C)C)c6)cc45)cc23)CC1	7.92	30.8	5.46	–	–	–
Nc1cncc(-c2ccc3[nH]nc(-c4cc5c(-c6ccccc6F)ccnc5[nH]4)c3c2)c1	7.47	23.5	6.88	–	–	–
c1csc(-c2ccnc3[nH]c(-c4n[nH]c5ccc(-c6cncc(OC7CCNCC7)c6)nc45)cc23)c1	7.37	51.4	5.45	6.52	–	–
CN1CCN(c2nccc3[nH]c(-c4n[nH]c5ccc(-c6cncc(CN7CCCC7)c6)cc45)cc23)CC1	7.32	31	5.03	–	–	–
c1cncc(-c2ccnc3[nH]c(-c4n[nH]c5ncc(-c6cncc(CN7CCCCC7)c6)cc45)cc23)c1	7.82	43.9	< 5.00	–	–	–
CN1CCN(c2nccc3[nH]c(-c4n[nH]c5ccc(-c6cncc(CN7CCCCC7)c6)nc45)cc23)CC1	7.82	70.8	5.38	8.00	–	–
CC(C)(C)CC(=O)Nc1cncc(-c2ccc3[nH]nc(-c4nc5ccncc5[nH]4)c3c2)c1	8.52	152	7.68	7.00	–	–
O=C(Nc1cncc(-c2cnc3[nH]nc(-c4nc5c(-c6cccc(F)c6)cncc5[nH]4)c3c2)c1)N1CCOCC1	7.85	96.8	8.05	–	–	–
CC(C)C(=O)Nc1cncc(-c2cc3c(-c4cc5c(-c6ccncc6)nccc5[nH]4)n[nH]c3cn2)c1	7.35	32.1	< 5.00	–	–	–
c1cncc(-c2ccnc3[nH]c(-c4n[nH]c5cnc(-c6cncc(CN7CCCC7)c6)cc45)cc23)c1	7.14	16.7	< 5.00	–	–	–
Cc1ccncc1-c1cnc2[nH]nc(-c3cc4c(-c5cccnc5)cncc4[nH]3)c2c1	7.77	17.4	5.65	–	–	–
CN1CCN(c2ccnc3[nH]c(-c4n[nH]c5ccc(-c6cncc(NC(=O)CC(C)(C)C)c6)nc45)cc23)CC1	8.00	30.3	5.41	–	–	–
CN1CCN(c2ccc(NC(=O)c3n[nH]c4ccc(-c5cncc(CN6CCC(F)(F)C6)c5)cc34)cn2)CC1	–	80.9	8.40	7.52	–	–
O=C(Nc1cncc(-c2ccc3[nH]nc(-c4nc5ccncc5[nH]4)c3c2)c1)C1CC1	7.38	93.8	8.10	–	–	–
CCCC(=O)Nc1cncc(-c2cnc3[nH]nc(-c4nc5c(-c6ccccc6F)cncc5[nH]4)c3c2)c1	7.15	82.8	8.10	–	–	–

Structure (SMILES)	pEC50 [1]	Emax at 0.3 µM [2] [%]	pEC50 [3]	pEC50 [4]	pEC50 [5]	Emax at 0.1 µM [6] [%]
CC(C)Nc1cncc(-c2cnc3[nH]nc(-c4cc5c(N6CCCCC6)nccc5[nH]4)c3c2)c1	7.15	33.6	5.47	–	–	–
CC(C)(C)C(=O)Nc1cncc(-c2cc3c(-c4nc5c(-c6ccc(F)s6)nccc5[nH]4)n[nH]c3cn2)c1	7.52	40.9	7.45	–	–	–
CN1CCN(c2ccnc3[nH]c(-c4n[nH]c5ncc(-c6cn[nH]c6)cc45)cc23)CC1	7.46	20.1	< 5.00	–	–	–
CC(C)(C)CC(=O)Nc1cncc(-c2cnc3[nH]nc(-c4cc5cnccc5[nH]4)c3c2)c1	8.70	7.07	6.22	–	–	–
Cc1cncc(NC(=O)c2n[nH]c3ccc(-c4cncc(CN5CCCCC5)c4)cc23)c1	–	68.3	7.23	6.52	–	–
Nc1cncc(-c2cc3c(-c4cc5c(-c6ccccc6F)cncc5[nH]4)n[nH]c3cn2)c1	7.40	15.5	5.79	–	–	–
FC1(F)CCN(Cc2cncc(-c3cnc4[nH]nc(-c5cc6c(-c7ccncc7)cncc6[nH]5)c4c3)c2)C1	7.89	36.5	5.82	–	–	–
CCCCC(=O)Nc1cncc(-c2cnc3[nH]nc(-c4cc5cnccc5[nH]4)c3c2)c1	8.52	30.8	5.83	–	–	–
CC1CCN(Cc2cncc(-c3ccc4[nH]nc(C(=O)Nc5cccnc5)c4c3)c2)CC1	–	94.4	8.15	7.52	–	–
CN1CCN(c2cncc3[nH]c(-c4n[nH]c5ccc(-c6cccnc6)cc45)nc23)CC1	8.70	80.6	7.28	–	–	–
CN(C)Cc1cncc(-c2ccc3[nH]nc(-c4cc5c(-c6ccncc6)cncc5[nH]4)c3c2)c1	7.57	17.8	5.98	–	–	–
CCC(=O)Nc1cncc(-c2cnc3[nH]nc(-c4cc5cnccc5[nH]4)c3c2)c1	8.70	16.9	6.02	–	–	–
FC1(F)CCN(Cc2cncc(-c3ccc4[nH]nc(-c5cc6c(-c7cccnc7)cncc6[nH]5)c4n3)c2)C1	7.52	23.3	5.41	–	–	–
CN1CCN(c2nccc3[nH]c(-c4n[nH]c5ccc(-c6cncc(NC(=O)CC7CCNCC7)c6)cc45)cc23)CC1	7.60	42.8	< 5.00	–	–	–
COc1cncc(-c2ccc3[nH]nc(-c4cc5c(-c6ccoc6)nccc5[nH]4)c3c2)c1	7.46	35.5	6.19	–	–	–
CN(C)Cc1cncc(-c2ccc3[nH]nc(-c4cc5c(-c6cccc(F)c6)nccc5[nH]4)c3c2)c1	7.03	42	5.53	–	–	–
O=C(Nc1cncc(-c2cnc3[nH]nc(-c4cc5c(-c6cccnc6)cccc5[nH]4)c3c2)c1)C1CCC1	7.60	41.3	6.70	–	–	–
CC(C)(C)C(=O)Nc1cncc(-c2cnc3[nH]nc(-c4cc5c(-c6ccncc6)cncc5[nH]4)c3c2)c1	8.30	33.6	< 5.00	–	–	–
CC(C)C(=O)Nc1cncc(-c2ccc3[nH]nc(-c4cc5c(N6CCN(C)CC6)nccc5[nH]4)c3c2)c1	7.82	21	5.11	–	–	–
c1ncc(-c2ccc3[nH]nc(-c4cc5c(N6CCCCC6)cncc5[nH]4)c3c2)cc1CN1CCCC1	7.62	24.7	5.74	–	–	–
COc1ccc(NC(=O)c2n[nH]c3ccc(-c4cncc(CN5CCC(F)(F)C5)c4)cc23)cn1	–	72.2	8.30	7.00	–	–
CC(C)Nc1cncc(-c2ccc3[nH]nc(-c4cc5c(-c6cccnc6)ccnc5[nH]4)c3c2)c1	7.70	45.5	< 5.00	–	–	–
O=C1COc2cccc(c2)-c2cncc3[nH]c(nc23)-c2n[nH]c3ccc(cc23)-c2cncc(c2)N1	–	–	7.06	7.00	7.43	185
CC(C)CC(=O)Nc1cncc(-c2ccc3[nH]nc(-c4cc5c(-c6ccccc6F)nccc5[nH]4)c3n2)c1	7.64	36.3	6.22	–	–	–
CN(C)Cc1cncc(-c2cc3c(-c4cc5c(-c6ccncc6)ccnc5[nH]4)n[nH]c3cn2)c1	7.15	33.4	< 5.00	–	–	–
CC(C)C(=O)Nc1cncc(-c2cc3c(-c4cc5c(-c6cccc(F)c6)cncc5[nH]4)n[nH]c3cn2)c1	7.19	42.2	5.76	–	–	–

Reference: ChEMBL document CHEMBL4739717, “Methods of treating cartilage disorders through inhibition of clk and dyrk” (2020)
